Each structure is given as a SMILES string. Where a name gives a salt, the structure may show the parent alone.

The first assay relates to compound-treated mice. The assay can be described thus: Neuropharmacological assay (SmartCube): behavioral activity signature and minimal effective dose. Conditions: MED = dose having 50% or more total activity, hydrochloride. It is filed as in vivo. The source says:
Neurosci. 2011 Sep. 9; 5:103 (doi: 10.3389/fnins.2011.00103) (“Roberds”). As reported in Roberds, because psychiatric diseases generally result from disorders of cell-cell communication or circuitry, intact systems are useful in detecting improvement in disease-relevant endpoints. These endpoints are typically behavioral in nature, often requiring human observation and interpretation. To facilitate testing of multiple compounds for behavioral effects relevant to psychiatric disease, PsychoGenics, Inc. (Tarrytown, N.Y., “PGI”) developed SmartCube™, an automated system in which behaviors of compound-treated mice are captured by digital video and analyzed with computer algorithms. (D. Brunner et al., Drug Discov. Today 2002, 7:S107-S112). PGI Analytical Systems uses data from SmartCube™ to compare the behavioral signature of a test compound to a database of behavioral signatures obtained using a large set of diverse reference compounds. (The composition of the database as well as validation of the method is further described in Roberds). In this way, the neuropharmacological effects of a test compound can be predicted by similarity to major classes of compounds, such as antipsychotics, anxiolytics and antidepressants.
The SmartCube™ system produces an activity signature indicating the probability that the activity of the test compound at the administered dose matches a given class of neuropharmacological agents. (See, e.g., Roberds, FIGS. 2 and 3). The test compound is simultaneously compared against multiple classes of agents; thus, a separate probability is generated for each behavioral effect measured (e.g., anxiolytic activity, analgesic activity, etc.). In the table below, these probabilities are reported for each behavioral effect measured as follows:
where LOQ is the limit of quantification.
Provided compounds were dissolved in a mixture of Pharmasolve™ (N-methyl-2-pyrrolidone), polyethylene glycol and propylene glycol, and were injected i.p. 15 min. before the behavioral test. For each compound, injections were administered at 3 different doses. For each behavioral effect measured, results for the most efficacious dose(s) are presented. In the table below, DP: anti-depressant; AX: anxiolytic; SD: sedative hypnotic; PS: anti-psychotic; MS: mood stabilizer; AD: ADHD; CE: cognitive enhancer; AG: analgesic; UN: uncharacterized CNS activity.
The potency of many of the compounds in the table was also determined in the SmartCube™ system. Test compounds were routinely examined at dose levels of 0.3, 1, 3, 10 and 30 mg per kg (mpk), although the dose range was increased or decreased if necessary to obtain a full dose response curve. A compound's minimal effective dose (MED) is a measure of the compounds potency. The MED was defined as the dose (in mpk) having 50% or more total activity in SmartCube.
Take `CC(C)[C@@H]1OCc2ccccc2[C@H]1N.Cl` (relative stereo) [Example 274, trans-3-Isopropylisochroman-4-amine hydrochloride]: the “Potency: minimal effective dose (MED), binned” value is given as “A (≤3 mpk)”.

The same assay, now with this note: Mus musculus, ip, MED = dose having 50% or more total activity, read-out: Potency: minimal effective dose (MED).
In the case of `C[C@@H]1OC[C@@H](N)c2ccccc21.Cl` (relative stereo) [Example 105, trans-1-Methylisochroman-4-amine hydrochloride], the minimal effective dose is 10 to 30 mg/kg.
On the same count and under the same terms, the same measure for `C[C@H]1OCc2ccc3ccccc3c2[C@@H]1N.Cl` (single isomer, unassigned) [Example 90]: 10 to 30 mg/kg.
As for `C[C@@H]1OCc2ccc3ccccc3c2[C@@H]1N.Cl` (single isomer, unassigned) [Example 91], the minimal effective dose lay in the range of 10 to 30 mg/kg.

The assay is the same for the next values; noted with them: Mus musculus, ip, MED = dose having 50% or more total activity, read-out: Potency: minimal effective dose (MED), binned.
For `CN[C@@H]1CO[C@@H](C)c2ccccc21` (relative stereo) [Example 236, trans-N,1-dimethylisochroman-4-amine hydrochloride], the minimal effective dose was in the range of 3 to 10 mg/kg.
Consider `CN[C@@H]1CO[C@H](C)c2ccccc21` (relative stereo) [Example 240, cis-N,1-dimethylisochroman-4-amine hydrochloride], for which the minimal effective dose lay in the range of 3 to 10 mg/kg.
The same measure, in the same setting: the same measure for `CC(C)[C@@H]1OCc2ccccc2[C@@H]1N` (relative stereo) [Example 256, cis-3-Isopropylisochroman-4-amine hydrochloride]: 3 to 10 mg/kg.
For the molecule `CC(C)[C@@H]1OCc2ccccc2[C@H]1N.Cl` (relative stereo) [Example 257, trans-3-Isopropylisochroman-4-amine hydrochloride], the minimal effective dose was in the range of 3 to 10 mg/kg.
Still for that read-out and setting: the same measure for `Cl.N[C@H]1c2ccccc2CO[C@H]1CF` (relative stereo) [Example 275, cis-3-(fluoromethyl)isochroman-4-amine hydrochloride]: 3 to 10 mg/kg.

The assay is the same for the next values; noted with them: i.p. 15 min before test, most efficacious dose(s).
On to `C[C@@H]1OC[C@@H](N)c2ccccc21.Cl` (relative stereo) [Example 105, trans-1-Methylisochroman-4-amine hydrochloride], for which the “AD: ADHD (probability of activity signature)” value (from here on “AD: ADHD”) was “+ (LOQ ≤ + <5%)”, the “AG: analgesic (probability of activity signature)” value (shortened to “AG: analgesic”) is reported as “++ (5% ≤ ++ <25%)”, the “AX: anxiolytic (probability of activity signature)” value (“AX: anxiolytic” for short) is on record as “++ (5% ≤ ++ <25%)” and the “CE: cognitive enhancer (probability of activity signature)” value (“CE: cognitive enhancer” for short) is on record as “++ (5% ≤ ++ <25%)”. Further, the “DP: anti-depressant (probability of activity signature)” value (“DP: anti-depressant” for short) was “++ (5% ≤ ++ <25%)”, the “MS: mood stabilizer (probability of activity signature)” value (from here on “MS: mood stabilizer”) was “++ (5% ≤ ++ <25%)”, the “PS: anti-psychotic (probability of activity signature)” value (from here on “PS: anti-psychotic”) is given as “++ (5% ≤ ++ <25%)” and the “SD: sedative hypnotic (probability of activity signature)” value (“SD: sedative hypnotic” for short) is recorded as “+ (LOQ ≤ + <5%)”. The “UN: uncharacterized CNS activity (probability of activity signature)” value (“UN: uncharacterized CNS activity” below) is “+++ (25% ≤ +++ <50%)”.
As to `CN[C@@H]1CO[C@@H](C)c2ccccc21` (relative stereo) [Example 236, trans-N,1-dimethylisochroman-4-amine hydrochloride], the “AD: ADHD” value was “+ (LOQ ≤ + <5%)”, the “AG: analgesic” value is recorded as “++ (5% ≤ ++ <25%)”, the “AX: anxiolytic” value is listed as “++ (5% ≤ ++ <25%)” and the “CE: cognitive enhancer” value is “+ (LOQ ≤ + <5%)”. Besides, the “DP: anti-depressant” value is “++ (5% ≤ ++ <25%)”, the “MS: mood stabilizer” value is given as “+ (LOQ ≤ + <5%)”, the “PS: anti-psychotic” value is recorded as “++ (5% ≤ ++ <25%)” and the “SD: sedative hypnotic” value is “+ (LOQ ≤ + <5%)”. For the same molecule, the “UN: uncharacterized CNS activity” value is listed as “++++ (50% ≤ ++++)”.
Take `CN[C@@H]1CO[C@H](C)c2ccccc21` (relative stereo) [Example 240, cis-N,1-dimethylisochroman-4-amine hydrochloride]: the “AD: ADHD” value is given as “+ (LOQ ≤ + <5%)”, the “AG: analgesic” value is “++ (5% ≤ ++ <25%)”, the “AX: anxiolytic” value is “++ (5% ≤ ++ <25%)” and the “CE: cognitive enhancer” value is listed as “++ (5% ≤ ++ <25%)”. Besides, the “DP: anti-depressant” value is on record as “++ (5% ≤ ++ <25%)”, the “MS: mood stabilizer” value is “+ (LOQ ≤ + <5%)”, the “PS: anti-psychotic” value was “++ (5% ≤ ++ <25%)” and the “SD: sedative hypnotic” value is listed as “++ (5% ≤ ++ <25%)”. Further, the “UN: uncharacterized CNS activity” value was “+++ (25% ≤ +++ <50%)”.
`CC(C)[C@@H]1OCc2ccccc2[C@@H]1N` (relative stereo) [Example 256, cis-3-Isopropylisochroman-4-amine hydrochloride]: the “AD: ADHD” value was “++ (5% ≤ ++ <25%)”, the “AG: analgesic” value was “+ (LOQ ≤ + <5%)”, the “AX: anxiolytic” value was “++ (5% ≤ ++ <25%)” and the “CE: cognitive enhancer” value is reported as “+ (LOQ ≤ + <5%)”. The “DP: anti-depressant” value is recorded as “+ (LOQ ≤ + <5%)”, the “MS: mood stabilizer” value is recorded as “++ (5% ≤ ++ <25%)”, the “PS: anti-psychotic” value is listed as “+++ (25% ≤ +++ <50%)” and the “SD: sedative hypnotic” value is listed as “++ (5% ≤ ++ <25%)”. For the same molecule, the “UN: uncharacterized CNS activity” value is listed as “++ (5% ≤ ++ <25%)”.
Take `CC(C)[C@@H]1OCc2ccccc2[C@H]1N.Cl` (relative stereo) [Example 257, trans-3-Isopropylisochroman-4-amine hydrochloride]: the “AD: ADHD” value was “+ (LOQ ≤ + <5%)”, the “AG: analgesic” value was “+ (LOQ ≤ + <5%)”, the “AX: anxiolytic” value is “+ (LOQ ≤ + <5%)” and the “CE: cognitive enhancer” value is reported as “+ (LOQ ≤ + <5%)”. The “DP: anti-depressant” value is “++ (5% ≤ ++ <25%)”, the “PS: anti-psychotic” value is listed as “++ (5% ≤ ++ <25%)” and the “UN: uncharacterized CNS activity” value is given as “++ (5% ≤ ++ <25%)”.
As to `CC(C)[C@@H]1OCc2ccccc2[C@H]1N.Cl` (relative stereo) [Example 274, trans-3-Isopropylisochroman-4-amine hydrochloride], the “AD: ADHD” value was “+ (LOQ ≤ + <5%)”, the “AG: analgesic” value was “+ (LOQ ≤ + <5%)”, the “AX: anxiolytic” value is “+ (LOQ ≤ + <5%)” and the “CE: cognitive enhancer” value is listed as “+ (LOQ ≤ + <5%)”. In addition, the “DP: anti-depressant” value was “++ (5% ≤ ++ <25%)”, the “PS: anti-psychotic” value is reported as “++ (5% ≤ ++ <25%)” and the “UN: uncharacterized CNS activity” value is reported as “++ (5% ≤ ++ <25%)”.
Consider `Cl.N[C@H]1c2ccccc2CO[C@H]1CF` (relative stereo) [Example 275, cis-3-(fluoromethyl)isochroman-4-amine hydrochloride], for which the “AD: ADHD” value is “+ (LOQ ≤ + <5%)”, the “AG: analgesic” value is “+ (LOQ ≤ + <5%)”, the “AX: anxiolytic” value was “+ (LOQ ≤ + <5%)” and the “CE: cognitive enhancer” value is “+ (LOQ ≤ + <5%)”. For the same molecule, the “DP: anti-depressant” value is recorded as “+ (LOQ ≤ + <5%)”, the “MS: mood stabilizer” value is reported as “++ (5% ≤ ++ <25%)”, the “PS: anti-psychotic” value was “+ (LOQ ≤ + <5%)” and the “SD: sedative hypnotic” value is recorded as “+++ (25% ≤ +++ <50%)”. Besides, the “UN: uncharacterized CNS activity” value is recorded as “++ (5% ≤ ++ <25%)”.
Take `C[C@H]1OCc2ccc3ccccc3c2[C@@H]1N.Cl` (single isomer, unassigned) [Example 90]: the “AD: ADHD” value is listed as “+ (LOQ ≤ + <5%)”, the “AG: analgesic” value is “++ (5% ≤ ++ <25%)”, the “AX: anxiolytic” value was “+++ (25% ≤ +++ <50%)” and the “CE: cognitive enhancer” value is recorded as “++ (5% ≤ ++ <25%)”. In addition, the “DP: anti-depressant” value is “++ (5% ≤ ++ <25%)”, the “MS: mood stabilizer” value was “+ (LOQ ≤ + <5%)”, the “PS: anti-psychotic” value is “+ (LOQ ≤ + <5%)” and the “SD: sedative hypnotic” value was “++ (5% ≤ ++ <25%)”. Besides, the “UN: uncharacterized CNS activity” value is listed as “+ (LOQ ≤ + <5%)”.
`C[C@@H]1OCc2ccc3ccccc3c2[C@@H]1N.Cl` (single isomer, unassigned) [Example 91]: the “AD: ADHD” value is reported as “+ (LOQ ≤ + <5%)”, the “AG: analgesic” value is “++ (5% ≤ ++ <25%)”, the “AX: anxiolytic” value is on record as “+ (LOQ ≤ + <5%)” and the “CE: cognitive enhancer” value was “++ (5% ≤ ++ <25%)”. Besides, the “DP: anti-depressant” value was “+ (LOQ ≤ + <5%)”, the “MS: mood stabilizer” value is “+ (LOQ ≤ + <5%)”, the “PS: anti-psychotic” value is “++ (5% ≤ ++ <25%)” and the “SD: sedative hypnotic” value is recorded as “++ (5% ≤ ++ <25%)”. In addition, the “UN: uncharacterized CNS activity” value is listed as “+++ (25% ≤ +++ <50%)”.

The same assay, now with this note: i.p. 15 min before test, most efficacious dose(s), hydrochloride.
For the molecule `CC(C)[C@@H]1OCc2ccccc2[C@H]1N.Cl` (relative stereo) [Example 257, trans-3-Isopropylisochroman-4-amine hydrochloride], the “MS: mood stabilizer” value is on record as “++ (5% ≤ ++ <25%)” and the “SD: sedative hypnotic” value is “+++ (25% ≤ +++ <50%)”.
As for `CC(C)[C@@H]1OCc2ccccc2[C@H]1N.Cl` (relative stereo) [Example 274, trans-3-Isopropylisochroman-4-amine hydrochloride], the “MS: mood stabilizer” value is reported as “+++ (25% ≤ +++ <50%)” and the “SD: sedative hypnotic” value is “++ (5% ≤ ++ <25%)”.
